# Tests used:
# Type in all cases: in vivo
# [1] = test system: cotton worm (Spodoptera litura); assay: Test Method 3: sprayed cabbage leaves fed to second instar cotton worm; details: 120 h, second instar larvae, after 5 days, 25°C, read-out: mortality of insects
# Method: (§1) The following tests in the test examples below were conducted at 25°C.
# (§2) Cabbage (Brassicae oleracea) seedling (on the developmental stage of the second to third true leaf) is planted in a cup, and the diluted solutions are sprayed into the seedling at a ratio of 20 mL/seedling. Thereafter, the stem and leaf thereof are cut out and then is installed into a cup that is covered with filter paper on the bed of the cup. Five (5) cotton worm (Spodoptera litura) at the second instar larval stage are released into the cup. After 5 days, the number of the surviving insects is counted, and the mortality of insects is calculated by the following equation. [formula]
# [2] = test system: diamondback moth (Plutella xylostella); assay: Test Method 4: sprayed cabbage leaves fed to second instar diamondback moth; details: 120 h, second instar larvae, after 5 days, 25°C, read-out: mortality of insects
# Method: Next, an efficacy of the present compound on controlling harmful arthropods is shown by Test examples. The following tests in the test examples below were conducted at 25°C.
# Test compounds are made to a formulation according to a similar method to that described in the Formulation example 1, and thereto is added water containing 0.03 v/v% of Shindain (registered trademark) to prepare a diluted solution containing a prescribed concentration of the test compound.
# as §2, with “diamondback moth (Plutella xylostella)” for “cotton worm (Spodoptera litura)”
# [3] = test system: cotton aphids (Aphis gossypii); assay: Test Method 1: foliar spray on cucumber seedling infested with cotton aphids (Formulation example 1); details: 120 h, spray 10 mL/seedling, examined after 5 days, 25°C, read-out: controlling value
# [4] = test system: cotton aphids (Aphis gossypii); assay: Test Method 11: foliar spray on cucumber seedling infested with cotton aphids (Formulation example 5); details: 120 h, spray 10 mL/seedling, examined after 5 days, 25°C, read-out: controlling value
# [5] = test system: diamondback moth (Plutella xylostella); assay: Test Method 10: sprayed cabbage seedling, third instar diamondback moth (Formulation example 5); details: 144 h, third instar larvae, after 6 days, 25°C, read-out: controlling value
# Method: as §1
# (§3) Cabbage (Brassicae oleracea) seedling (on the developmental stage of the third to fourth true leaf) is planted in a cup, and the diluted solutions are sprayed into the seedling at a ratio of 20 mL/seedling. Thereafter, ten (10) diamondback moth (Plutella xylostella) at the third instar larval stage are released onto the seedling. After 6 days, the number of the surviving insects is counted, and the mortality of insects is calculated by the following equation. [formula]
# [6] = test system: cotton worm (Spodoptera litura); assay: Test Method 9: sprayed cabbage seedling, third instar cotton worm (Formulation example 5); details: 144 h, third instar larvae, after 6 days, 25°C, read-out: controlling value
# Method: as §1
# as §3, with “cotton worm (Spodoptera litura)” for “diamondback moth (Plutella xylostella)”
# [7] = test system: common house mosquitos (Culex pipiens pallens); assay: Test Method 12: mosquito larvae released into diluted solution; details: 24 h, last instar larvae, after 1 day, 25°C, read-out: controlling value
# Method: as §1
# Into the diluted solution, 30 common house mosquitos (Culex pipiens pallens) at the last instar larval stage are released, and after 1 day, the state of the house mosquito larvae is examined, and the mortality of insects is calculated by the following equation. [formula]
Structure (SMILES),mortality at 500 ppm [1] [%],mortality at 500 ppm [2] [%],mortality at 500 ppm [3] [%],mortality at 50 ppm [4] [%],mortality at 200 ppm [4] [%],mortality at 50 ppm [5] [%],mortality at 200 ppm [5] [%],mortality at 50 ppm [6] [%],mortality at 200 ppm [6] [%],mortality at 3.5 ppm [7] [%]
CCSc1c(C(=O)N(C)c2nc3ccc(F)cc3s2)nc2ccc(I)cn12 [compound 2],≥ 80,≥ 80,≥ 90,–,–,–,–,–,–,–
CCSc1c(C(=O)N(C)c2nc3cc(F)ccc3s2)nc2ccc(I)cn12 [compound 3],≥ 80,≥ 80,–,–,–,–,–,–,–,–
CCSc1c(C(=O)N(C)c2nc3cccc(F)c3o2)nc2ccc(I)cn12 [compound 18],–,≥ 80,≥ 90,–,–,–,–,–,–,–
CCS(=O)(=O)c1c(C(=O)N(C)c2nc3cc(F)ccc3s2)nc2ccc(I)cn12 [compound 24],≥ 80,≥ 80,≥ 90,≥ 90,≥ 90,≥ 80,≥ 80,≥ 80,≥ 80,–
CCS(=O)(=O)c1c(C(=O)N(C)c2nc3cccc(Cl)c3s2)nc2ccc(I)cn12 [compound 27],≥ 80,–,≥ 90,≥ 90,≥ 90,–,–,≥ 80,≥ 80,–
CCS(=O)(=O)c1c(C(=O)N(C)c2nc3ccc(C)cc3s2)nc2ccc(I)cn12 [compound 32],≥ 80,≥ 80,–,–,–,≥ 80,≥ 80,–,–,–
CCS(=O)(=O)c1c(C(=O)N(C)c2nc3cccc(F)c3o2)nc2ccc(I)cn12 [compound 39],–,≥ 80,–,–,–,–,–,–,–,–
CCSc1cccnc1C(=O)N(C)c1nc2cc(C(F)(F)F)ccc2s1 [compound 49],≥ 80,≥ 80,–,–,–,–,–,–,–,–
CCS(=O)(=O)c1cccnc1C(=O)N(C)c1nc2cc(C(F)(F)F)ccc2o1 [compound 54],–,≥ 80,≥ 90,–,–,–,–,–,–,–
CCS(=O)(=O)c1cccnc1C(=O)N(C)c1nc2cc(C(F)(F)F)ccc2s1 [compound 55],–,≥ 80,≥ 90,–,–,–,–,–,–,–
CCS(=O)(=O)c1cc(-c2ccc(C#N)cc2)cnc1C(=O)N(C)c1nc2cc(F)c(F)cc2s1 [compound 60],–,≥ 80,–,–,–,–,–,–,–,–
CCSc1c(C(=O)N(C)c2nc3ccc(F)cc3n2C)nc2ccc(I)cn12 [compound 69],–,≥ 80,≥ 90,≥ 90,≥ 90,–,–,–,–,–
CCS(=O)(=O)c1c(C(=O)N(C)c2nc3ccc(F)nc3s2)nc2ccc(I)cn12 [compound 75],≥ 80,≥ 80,≥ 90,–,≥ 90,–,≥ 80,–,≥ 80,–
CCS(=O)(=O)c1c(C(=O)N(C)c2nc3ccc(F)cc3n2C)nc2ccc(I)cn12 [compound 78],≥ 80,≥ 80,≥ 90,≥ 90,≥ 90,–,≥ 80,–,–,–
CCS(=O)(=O)c1c(C(=O)N(C)c2nc3cc(F)ccc3n2C)nc2ccc(I)cn12 [compound 79],≥ 80,≥ 80,≥ 90,≥ 90,≥ 90,–,≥ 80,–,≥ 80,–
CCS(=O)(=O)c1c(C(=O)N(C)c2nc3cc(F)cc(F)c3s2)nc2ccc(I)cn12 [compound 80],≥ 80,≥ 80,–,–,–,–,≥ 80,–,≥ 80,–
CCS(=O)(=O)c1c(C(=O)N(C)c2nc3cc(F)c(Cl)cc3s2)nc2ccc(I)cn12 [compound 81],–,≥ 80,–,–,–,–,–,–,–,–

Structure (SMILES),mortality at 500 ppm [1] [%],mortality at 500 ppm [2] [%],mortality at 500 ppm [3] [%],mortality at 50 ppm [4] [%],mortality at 200 ppm [4] [%],mortality at 50 ppm [5] [%],mortality at 200 ppm [5] [%],mortality at 50 ppm [6] [%],mortality at 200 ppm [6] [%],mortality at 3.5 ppm [7] [%]
CCN(C(=O)c1nc2ccc(I)cn2c1S(=O)(=O)CC)c1nc2cc(F)c(F)cc2s1 [compound 96],≥ 80,≥ 80,≥ 90,≥ 90,≥ 90,–,–,–,–,–
CCS(=O)(=O)c1c(C(=O)N(CC#N)c2nc3cc(F)c(F)cc3s2)nc2ccc(I)cn12 [compound 98],–,≥ 80,–,–,–,–,–,–,–,–
C#CCN(C(=O)c1nc2ccc(I)cn2c1S(=O)(=O)CC)c1nc2cc(F)c(F)cc2s1 [compound 99],–,≥ 80,–,–,–,–,–,–,–,–
CCS(=O)(=O)c1c(C(=O)N(C)c2nc3cc(F)c(F)cc3s2)nc2ccc(C3CC3)cn12 [compound 102],≥ 80,≥ 80,≥ 90,≥ 90,≥ 90,≥ 80,≥ 80,≥ 80,≥ 80,–
CCS(=O)(=O)c1cc(-c2ccc(F)cn2)cnc1C(=O)N(C)c1nc2cc(F)c(F)cc2s1 [compound 110],≥ 80,≥ 80,–,–,–,≥ 80,≥ 80,≥ 80,≥ 80,≥ 90
CCS(=O)(=O)c1cc(-n2cc(Cl)cn2)cnc1C(=O)N(C)c1nc2cc(F)c(F)cc2s1 [compound 112],≥ 80,≥ 80,–,–,–,–,≥ 80,≥ 80,≥ 80,–
CCS(=O)(=O)c1cccnc1C(=O)N(C)c1nc2cc(F)c(F)cc2s1 [compound 114],≥ 80,≥ 80,–,–,–,–,–,–,–,–
CCS(=O)(=O)c1cc(C(F)(F)F)ccc1C(=O)N(C)c1nc2cc(F)c(F)cc2s1 [compound 120],≥ 80,≥ 80,–,–,–,≥ 80,≥ 80,≥ 80,≥ 80,–
CCCOc1cnc(C(=O)N(C)c2nc3cc(F)c(F)cc3s2)c(S(=O)(=O)CC)c1 [compound 126],≥ 80,≥ 80,–,–,≥ 90,–,≥ 80,≥ 80,≥ 80,–
CCS(=O)(=O)c1cc(OC(C)(C)C)cnc1C(=O)N(C)c1nc2cc(F)c(F)cc2s1 [compound 128],≥ 80,≥ 80,≥ 90,–,≥ 90,≥ 80,≥ 80,≥ 80,≥ 80,–
CCS(=O)(=O)c1ccc(NC(=O)OC(C)(C)C)nc1C(=O)N(C)c1nc2cc(F)c(F)cc2s1 [compound 129],≥ 80,≥ 80,–,–,–,–,≥ 80,–,≥ 80,≥ 90
CCS(=O)(=O)c1ccc(-c2ccccn2)nc1C(=O)N(C)c1nc2cc(F)c(F)cc2s1 [compound 133],≥ 80,≥ 80,–,–,≥ 90,–,≥ 80,≥ 80,≥ 80,–
CCS(=O)(=O)c1ccc(NCCCN(C)C)nc1C(=O)N(C)c1nc2cc(F)c(F)cc2s1 [compound 136],–,≥ 80,–,–,–,–,≥ 80,–,–,≥ 90
CCS(=O)(=O)c1ccc(Nc2ccc(C)cc2)nc1C(=O)N(C)c1nc2cc(F)c(F)cc2s1 [compound 137],–,≥ 80,–,–,–,–,–,–,–,–
CCS(=O)(=O)c1c(C(=O)N(C)c2nc3cc(F)c(F)cc3s2)nc(Br)n1C [compound 140],–,≥ 80,–,–,–,–,≥ 80,–,–,–
CCS(=O)(=O)c1c(C(=O)N(C)c2nc3cc(F)c(F)cc3s2)nc(-c2cnn(C(F)F)c2)n1C [compound 143],≥ 80,≥ 80,–,–,–,–,–,–,–,–
CCS(=O)(=O)c1c(C(=O)N(C)c2nc3cc(Cl)c(F)cc3s2)nn(C)c1C1CC1 [compound 145],–,≥ 80,–,–,–,–,≥ 80,–,–,–

# — EP4722205A1, “HETEROCYCLIC COMPOUND AND NOXIOUS ARTHROPOD-CONTROLLING COMPOSITION CONTAINING SAME” (Sumitomo Chemical Company, Limited, priority 2023, dated 2024)
